Measurements as given in the supplement of paper PMC3493320.

tested on: NCI-H295R; test: IC50 (antiproliferative, ATP content); conditions: 48 h
In short: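 Adrenocortical carcinoma cells in 1536-well plates (1500 per well, serum-free DMEM plus ITS, overnight culture) were exposed for 48 h at 37 °C, 5% CO2 to pin-transferred compounds at 8 final concentrations ranging 0.6 nM to 46 µM. ATP content was then read as CellTiter-Glo luminescence and normalised to vehicle and positive-control wells. The IC50 came from logistic curve fits, and any compound lacking a concentration response was recorded as above the top dose.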

Compound	IC50 [µM]
C=CC[N@@H+]1/C(=C/CO)[C@@H]2C[C@H]3[C@H]1CC[C@]31c3ccccc3N3C=C4[C@@H]5N(C=C2[C@H]31)c1ccccc1[C@@]51CC[C@H]2[C@H]1C[C@@H]4/C(=C\CO)[N@@H+]2CC=C.[Cl-].[Cl-]	> 46
CCCc1ccc(C(=O)O)cc1	> 46
S=C(S)N1CCNCC1	> 46
Nc1nnc(-c2cccc(Cl)c2Cl)c(N)n1	> 46
C[C@@H](O)[C@H]1C(=O)N2C(C(=O)[O-])=C(SC3Cn4cnc[n+]4C3)[C@H](C)[C@H]12 (some centres undefined)	> 46
O=C1NCCN1c1ncc([N+](=O)[O-])s1	> 46
CCC(C)(Oc1ccc(C2(c3ccc(OC(C)(CC)C(=O)O)cc3)CCCCC2)cc1)C(=O)O (centres undefined)	> 46
CCCCCCNC(=O)n1cc(F)c(=O)[nH]c1=O	> 46
O=C(CS(=O)C(c1ccccc1)c1ccccc1)NO (centres undefined)	> 46
COc1cc2c3cc1Oc1cc(ccc1O)C[C@@H]1c4c(cc(OC)c(O)c4Oc4ccc(cc4)C[C@@H]3N(C)CC2)CC[N+]1(C)C.Cl.[Cl-]	> 46
CCCCCCCC(=O)O	> 46
N#Cc1ccc2c(c1)N(CCCN1CCC(O)CC1)c1ccccc1S2	> 46
O=[N+]([O-])c1ccc([As](=O)(O)O)cc1	> 46
CC(C)[C@@H]1CC[C@@H](C)C[C@H]1O	> 46
O=C(NC(O)C(Cl)(Cl)Cl)NC(O)C(Cl)(Cl)Cl (centres undefined)	> 46
Cc1ccc(S(=O)(=O)NC(=O)NC2CCCCCCC2)cc1	> 46
Cl.Oc1cn2c(n1)Nc1ccc(Cl)c(Cl)c1C2	> 46
O=C(O)CCC(=O)O.c1ccc(C2(c3ccccc3)CC2C2=NCCN2)cc1 (centres undefined)	> 46
Oc1cc(Cl)ccc1Oc1ccc(Cl)cc1Cl	> 46
NC(=S)N/N=C/c1cccnc1	> 46
O=C1[C@]([C@](CC4)([H])[C@@]3([H])[C@@](C1)(C)[C@@](CC3)(O)[C@@](CO)=O)([H])[C@](C=C2)(C)C4=CC2=O	> 46
F[C@@]([C@](C=C4)(C)C3=CC4=O)2[C@@H](O)C[C@]([C@](C5)([H])[C@@]([H])2CC3)(C)[C@@]1([C@](CO)=O)[C@@H]5OC(C)(C)O1	> 46
CC(C)(C)c1ccc(C(O)CCCN2CCC(C(O)(c3ccccc3)c3ccccc3)CC2)cc1 (centres undefined)	> 46
O=C(C)N1[C@](C[C@](O)([H])C1)([H])[C@@](O)=O	> 46
O=C(O)c1cc(=O)c2ccccc2o1	> 46

Compound	IC50 [µM]
O=C(O)C(Cc1cc(I)c(O)c(I)c1)c1ccccc1 (centres undefined)	> 46
O=C(Oc1cccc2cccnc12)c1ccccc1	> 46
CCCCC(CC)COC(=O)CC(C(=O)OCC(CC)CCCC)S(=O)(=O)[O-].[Na+] (centres undefined)	> 46
ClC4=C(Cl)[C@]5(Cl)[C@@]2([H])[C@]([C@](Cl)4[C@](Cl)5Cl)([H])[C@H]3[C@@H]1O[C@@H]1[C@@H]2C3	> 46
CCCCCCCCCC(=O)O[C@H]1CC[C@H]2[C@@H]3CCC4=CC(=O)CC[C@]4(C)[C@H]3CC[C@]12C	> 46
NC1=NC=NC2=C1N=CN2[C@@H]3O[C@H](COP(OP(OC[C@H]4O[C@@H]([N@@+]5=CC=CC(C(N)=O)=C5)[C@H](O)[C@@H]4O)([O-])=O)(O)=O)[C@@H](O)[C@H]3O	> 46
CC(C)[C@@H](N)C(=O)O	> 46
COc1cc(NS(=O)(=O)c2ccc(N)cc2)ncn1	> 46
CCC(C(=O)NC(N)=O)c1ccccc1 (centres undefined)	> 46
Nc1nc(=O)c2ncn(CCC(CO)CO)c2[nH]1	> 46
CC1CC(OC(=O)C(O)c2ccccc2)CC(C)(C)C1 (centres undefined)	> 46
CCOC(=O)Nc1ccc2c(c1)N(C(=O)CCN1CCOCC1)c1ccccc1S2.Cl	> 46
CCOC(=O)[N-]c1c[n+](N2CCOCC2)no1	> 46
O=[N+]([O-])c1cc([As](=O)(O)O)ccc1O	> 46
O=NN(CCCl)C(=O)NCCCl	> 46
CC(O)COc1ccccc1 (centres undefined)	> 46
CC(C(=O)O)c1ccc(-c2ccccc2)c(F)c1 (centres undefined)	> 46
CC(c1cc2ccccc2s1)N(O)C(N)=O (centres undefined)	> 46
CC(=O)O[C@H]1C[C@@H]2CC[C@@H]3[C@H](CC[C@@]4(C)[C@H]3C[C@H]([N+]3(C)CCCCC3)[C@@H]4OC(C)=O)[C@@]2(C)C[C@@H]1[N+]1(C)CCCCC1.[Br-].[Br-]	> 46
Cn1c(=O)c2[nH]c(Br)nc2n(C)c1=O	> 46
Cc1ccc(/N=C/N(C)/C=N/c2ccc(C)cc2C)c(C)c1	> 46
CCNC(=O)N(CCCN(C)C)C(=O)[C@@H]1C[C@@H]2c3cccc4N\C=C(\C[C@H]2N(C1)CC=C)c34	> 46
Nc1c2c(nc3ccccc13)CCCC2O.O=C(O)/C=C\C(=O)O (centres undefined)	> 46
C[N+]12CCC(CC1)C(OC(=O)C(O)(c1ccccc1)c1ccccc1)C2.[Br-] (centres undefined)	> 46
CC1(C)[C@@H](OC(=O)CCC(=O)[O-])CC[C@]2(C)[C@H]3C(=O)C=C4[C@@H]5C[C@@](C)(C(=O)[O-])CC[C@]5(C)CC[C@@]4(C)[C@]3(C)CC[C@@H]12.[Na+].[Na+]	> 46

Compound	IC50 [µM]
C=C1[C@@H]2CC[C@@H](C2)C1(C)C	> 46
CCC1(c2ccc(N)cc2)CCC(=O)NC1=O (centres undefined)	> 46
CCCCCCCCCCCCCCC[C@H](O)[C@H](N)CO	> 46
CC1=NN(c2ccccc2)C(=O)C1	> 46
Nc1ccncc1	> 46
CC(C)[C@@H](C)/C=C/[C@@H](C)[C@H]1CC[C@H]2/C(=C/C=C3\C[C@@H](O)CC[C@@H]3C)CCC[C@]12C	> 46
C[C@@H](O)[C@H]1C(=O)N2C(C(=O)O)=C(S[C@@H]3CN[C@H](C(=O)N(C)C)C3)[C@H](C)[C@H]12	> 46
CN(C)[C@@H]1C(O)=C(C(N)=O)C(=O)[C@@]2(O)C(O)=C3C(=O)c4c(O)ccc(Cl)c4[C@@](C)(O)[C@H]3C[C@@H]12.Cl	> 46
NC(=O)N[C@@H](CCC(=O)O)C(=O)O	> 46
CC[N+](C)(CC)CCOC(=O)C(O)(c1ccccc1)C1CCCCC1.[Br-] (centres undefined)	> 46
O=C(O)COc1ccccc1	> 46
O=C([O-])c1cc(N=Nc2ccc(O)c(C(=O)[O-])c2)ccc1O.[Na+].[Na+]	> 46
CN1CCN(CC(=O)N2c3ccccc3C(=O)Nc3cccnc32)CC1	> 46
CNC(C)C(O)c1ccc(O)cc1.Cl (centres undefined)	> 46
Cc1c(C(=O)NCCO)[n+]([O-])c2ccccc2[n+]1[O-]	> 46
[C@@]2\1(\C(=C/C(/C=C/1)=O)CC[C@@H]4[C@@H]2CC[C@@]3(OC(=O)CC[C@H]34)C)C	> 46
CC(C)[C@H](NC(=O)[C@H](CC(=O)O)NC(=O)[C@H](CCCCN)NC(=O)[C@@H](N)CCCNC(=N)N)C(=O)N[C@@H](Cc1ccc(O)cc1)C(=O)O	> 46
COc1cc2c(cc1OC)C1CC(=O)C(CC(C)C)CN1CC2 (centres undefined)	> 46
C[C@H](N)[C@H](O)c1ccc(O)c(O)c1	> 46
CCOC(=O)c1c(N)sc2c1CCN(Cc1ccccc1)C2.Cl	> 46
CNC1=Nc2ccc(Cl)cc2C(c2ccccc2)=[N+]([O-])C1	> 46
CCC(=O)O.CCC(=O)O.O=C(Nc1cccc(C2=NCCN2)c1)Nc1cccc(C2=NCCN2)c1	> 46
O=C1C2=C(C=C(C=C2O)O)O/C(=C\1O)C3=CC(=C(C=C3)O)O.O.O	> 46
CCOc1ccc(C(=O)OCCN(CC)CC)cc1	> 46
O=C(O)CCCc1ccc(N(CCCl)CCCl)cc1	> 46

Compound	IC50 [µM]
CCCCCCCCCCOCC(O)CN.Cl (centres undefined)	> 46
CC(C)(C)CC(C)(C)c1ccc(OCCO)cc1	> 46
C(=Cc1ccccc1)CN1CCN(C(c2ccccc2)c2ccccc2)CC1	> 46
O=[C@@](C)[C@@H]3[C@]2(C)[C@](CC3)([H])[C@@]1([H])[C@@](CC2)([H])[C@](CC[C@](O)(C)C4)(C)[C@@]4([H])CC1	> 46
COCC(=O)N(c1c(C)cccc1C)C(C)C(=O)OC (centres undefined)	> 46
c1ccc2c(c1)Nc1ccccc1S2	> 46
CC1COc2c(N3CCN(C)CC3)c(F)cc3c(=O)c(C(=O)O)cn1c23 (centres undefined)	> 46
c1cccc2N\C=C/c12	> 46
CCCN(CCC)C(=O)C(CCC(=O)O)NC(=O)c1ccccc1 (centres undefined)	> 46
C[C@@H]1CN(c2c(F)c(F)c3c(=O)c(C(=O)O)cn(C4CC4)c3c2F)C[C@H](C)N1	> 46
[Br-].O.C[N+]2(C1C[C@H](CC2CC1)OC(=O)C(CO)c3ccccc3)C(C)C (centres undefined)	> 46
Nc1ccc(S(=O)(=O)Nc2ccccc2)cc1	> 46
O=[C@@]([C@@H]2CC[C@@H](CN)CC2)OC1=CC=C(CCC(O)=O)C=C1.Cl	> 46
CCN(CCCc1ccccc1)CCCc1ccccc1.O=C(O)CC(O)(CC(=O)O)C(=O)O	> 46
CC(C)(C)C(=O)C(Oc1ccc(Cl)cc1)n1ccnc1 (centres undefined)	> 46
Cc1c(N(C)C)c(=O)n(-c2ccccc2)n1C	> 46
Nc1ccc(C(=O)O)cc1	> 46
CC(O)CO (centres undefined)	> 46
CCOc1ccccc1OCCN[C@H](C)Cc1ccc(OC)c(S(N)(=O)=O)c1.Cl	> 46
CCN(CC)C(=O)N[C@@H]1C=C2c3cccc4[nH]cc(c34)C[C@@H]2N(C)C1	> 46
NS(=O)(=O)c1cc2c(cc1Cl)NCNS2(=O)=O	> 46
CC1(C)OC(=O)NC1=O	> 46
NCCC[C@H](N)CC(=O)N[C@H]1CNC(=O)[C@H]([C@H]2C[C@H](O)N=C(N)N2)NC(=O)/C(=C/NC(N)=O)NC(=O)[C@H](CO)NC(=O)[C@H](CO)NC1=O.O=S(=O)(O)O	> 46
O=C(O)CCC(=O)Nc1ccc(S(=O)(=O)Nc2nccs2)cc1	> 46
